Entries after “also recorded” stand apart in the source; their conditions may differ.
Tests used:
LPS-induced lung injury = test system: LPS-induced lung injury; parameters: method as in Zhang et al., 2018; details: mice; ref Zhang et al., 2018; cited from earlier work
[1] = test system: K/BxN serum-transfer arthritis (STA) model; experiment: K/BxN serum-transfer arthritis (STA) model, arthritic index / clinical score; format: in vivo, C57BL/6 mice; details: STA mice
Method: K/BxN serum was collected from K/BxN mice at 8 weeks of age, pooled, aliquoted and stored at -20 °C. K/BxN serum-transfer arthritis (STA) model was induced by intraperitoneal (i.p.) application of 150 μL of serum at day 0. Clinical score for arthritis severity was assessed using a 0–4 point scale for each paw at various time points (0–16 total score) as described previously ([Luo et al., 2011]). 8-week old male C57BL/6 mice were purchased from Dashuo Animal Center (China, Chengdu), maintained at 25°C, and exposed to 12-h light and dark cycles. Mice were fed with standard laboratory chow and water with 1 week of acclimatization. Naive mice were used as the control group. Except the control mice, all mice were i. p. injected with 150 μL of serum, then randomly divided into the following groups and treated with different compounds daily for the consecutive 8 days: 1) STA group; 2) Solvent control group, mice were gavaged with the solvent; 3) Dexamethasone (DEX) group, mice were gavaged with 30 mg/kg DEX; 4) EFL2 group 1, mice were gavaged with 40 mg/kg EFL2; 5) EFL2 group 2, mice were intraperitoneally injected with 15 mg/kg EFL2; 6) EFL2 group 3, […] were intraperitoneally injected with 40 mg/kg EFL2. […] All animal experiments were conducted in accordance with ethical regulation for animal care and use in China.

[2] = test system: TLR7-mediated NF-κB signaling pathway (IKKα/β, IκBα, p65); experiment: Western blot, NF-κB pathway in R837-stimulated RAW264.7 cells; format: cell-based, mouse; details: R837-stimulated RAW264.7
Method: RAW264.7 cells (2×10^6 cells/well) were plated into 6-well plates and then incubated at 37°C in 5% CO2 for 24 h. After incubated with various concentrations of EFL2 (1, 5 and 10 µM) for 1 h, cells were then stimulated by R837 (20 μg/ml) for 30 min. Cell lysates were prepared by direct lysis in 20 µL IP buffer (Beyotime Biotechnology, Shanghai, China). After obtaining the whole cell extracts, the cytosolic and nuclear were seperated using Nuclear and Cytoplasmic Protein Extraction Kit (Beyotime Biotechnology, Shanghai, China). BCA Protein Assay Kit (Beyotime Biotechnology, Nantong, China) was applied to determine the protein concentrations. The bands corresponding to p- IKKα/β, IKKα/β, p-IκBα, IκBα, p-p65, p65, p-IRAK4, IRAK4, p-IKKβ, IKKβ, p-IRF5, IRF5, β-actin and Lamin B were visualized using a Western Blot Detection Chemiluminescence Kit (Merck). Protein extracted from the total lysates/cytoplasm and nucleus was quantified in relation to β-actin and Lamin B bands, respectively.
The antibodies used in the experiments were as follows: rabbit anti-mouse IKKα/β polyclonal antibody (1:1,000, Abways, China), rabbit anti-mouse IκBα polyclonal antibody (1:1,000, Abgent, China), rabbit anti-mouse p65 polyclonal antibody (1:1,000, Abgent, China), rabbit anti-mouse phosphorylated IKKα (Ser176)/β (Ser177) (1:1,000, Abways, China), rabbit anti-mouse phosphorylated IκBα (1:1,000, Abcam, United States), rabbit anti-mouse phosphorylated p65 (1:1,000, Abcam, United States), rabbit anti-mouse IRAK4 polyclonal antibody (1:1,000, Proteintech, United States), rabbit anti-mouse phosphorylated IRAK4 (Thr345/Ser346) (1:1,000, Affinity, United States), rabbit anti-mouse IKKβ polyclonal antibody (1:1,000, Abbkine, United States), rabbit anti-mouse phosphorylated IKKβ (Ser177) (1:1,000, Abways, China), rabbit anti-mouse IRF5 polyclonal antibody (1:1,000, Immunoway, United States), rabbit anti-mouse phosphorylated IRF5 (Ser437) (1:1,000, Affinity, United States), anti-mouse actin monoclonal antibody (1:20,000, Transgen, China) and rabbit anti-mouse LaminB monoclonal antibody (1:5,000, Abways, China).

[3] = test system: bone marrow-derived macrophages (BMDMs); experiment: Cell viability, CCK8 assay, BMDMs; format: cell-based, C57BL/6 mice; details: CCK8, 0.1-100 μM, 20 h
Method: RAW264.7 cells, a mouse macrophage cell line, were cultured in DMEM medium containing 10% fetal bovine serum (FBS), 1% penicillin-streptomycin and maintained at 37 °C in 5% CO2 humidified air. Bone marrow-derived macrophages (BMDMs) generation was performed as following description. In brief, bone marrow cells were harvested from tibias and femurs of C57BL/6 mice and differentiated for 7 days in DMEM medium supplemented with 10% FBS, 1% penicillin-streptomycin and 50 ng/ml M-CSF. For human peripheral blood mononuclear cells (PBMCs) preparation, 5 ml peripheral venous blood was obtained from healthy donors in West China Hospital. PBMCs were isolated with Human Lymphocyte Separation Medium (LTS1077, Tian Jing, China) according to the manufacturer’s instructions. The experimental protocols were performed according to the approved guidelines established by the Institutional Human Research Subject Protection Committee of the Ethics Committee of West China Hospital, Sichuan University, China.
The effects of EFL2 on RAW264.7 cells, BMDMs and PBMCs viability were evaluated by Cell Counting Kit-8 (CCK8) assay (Dojindo, Japan). […] The optical absorbance at 450 nm was read with a Biotek Eon™ microplate reader (Biotek, Vermont, United States).

Which “effect on LPS-induced lung injury” value (LPS-induced lung injury) does the source give for C=C1C(OC(=O)c2ccccc2)CC2C(C=C(C)C(=O)C3(OC(C)=O)CC(C)C(OC(=O)c4ccccc4)C3C1OC(C)=O)C2(C)C (stereo not drawn) [EFL2, Euphorbia factor L2] here?
Its value is “robust improving effect”.

And the “arthritis symptoms (clinical score)” value ([1]; EFL2 15 mg/kg i.p. daily, particularly acute phase)?
The value was “to a moderate extent, alleviated”.

What about the “joint swelling and redness (clinical score)” value ([1]; EFL2 40 mg/kg i.p. daily) of the same compound?
The value was “dramatically improved”.

And the “arthritis severity (clinical score)” value ([1]; EFL2 40 mg/kg oral (gavage) daily, 40 mg/kg)?
The value was “did not affect; also recorded: hardly improved”.

And the IKKα/β phosphorylation ([2]; EFL2 1, 5, 10 μM)?
Its IKKα/β phosphorylation is “effectively inhibited”.

What about the IκB-α phosphorylation ([2]; EFL2 1, 5, 10 μM) of the same compound?
Its IκB-α phosphorylation is “effectively inhibited”.

And the p65 phosphorylation ([2]; EFL2 1, 5, 10 μM)?
Its p65 phosphorylation is “effectively inhibited”.

What about the “NF-κB subunit p65 translocation activity” value ([2]; EFL2, also immunofluorescence) of the same compound?
The value was “significantly suppressed”.

What about the “concentration at which significant cytotoxicity is displayed” value [3] of the same compound?
The value was ≥ 25 µM.
